Source: ChEMBL document CHEMBL1926539, “Discovery of novel selective inhibitors of Staphylococcus aureus β-ketoacyl acyl carrier protein synthase III” (Eur J Med Chem, 2012)
Converted amounts (≈) assume the structure as drawn.

Key:
[1] = Inhibition of Staphylococcus aureus recombinant GST-tagged KAS3 expressed in Escherichia coli (DE3) at 1:10 protein to drug ratio by fluorescence quenching analysis
Staphylococcus aureus [2] = assay: Antimicrobial activity against Staphylococcus aureus KCTC 1621 after 20 hrs by 2 fold serial broth dilution method; format: functional; conditions: KCTC 1621, 20 h
Enterococcus faecalis = assay: Antimicrobial activity against Enterococcus faecalis KCTC 2011 after 20 hrs by 2 fold serial broth dilution method; format: functional; conditions: KCTC 2011, 20 h
Escherichia coli = assay: Antimicrobial activity against Escherichia coli KCTC 1682 after 20 hrs by 2 fold serial broth dilution method; format: functional; conditions: KCTC 1682, 20 h
Enterococcus faecium = assay: Antimicrobial activity against vancomycin-resistant Enterococcus faecium clinical isolate after 20 hrs by 2 fold serial broth dilution method; format: functional
Staphylococcus aureus [3] = assay: Antimicrobial activity against methicillin-resistant Staphylococcus aureus CCARM 3114 after 20 hrs by 2 fold serial broth dilution method; format: functional; conditions: CCARM 3114, 20 h
NIH3T3 [4] = assay: Cytotoxicity against mouse NIH/3T3 cells after 24 hrs by MTT assay; format: cell-based; conditions: NIH3T3, 24 h
NIH3T3 [5] = assay: Cytotoxicity against mouse NIH/3T3 assessed as cell survival at MIC after 24 hrs by MTT assay; format: cell-based; conditions: nih3t3, 24 h
[6] = Cytotoxicity against mouse NIH/3T3 cells assessed as cell survival at 100 nM after 24 hrs by MTT assay; format: cell-based, NIH3T3; conditions: read-out: Activity

NC(=O)C1(C(N)=O)OC1c1ccc(Cl)c(Cl)c1 (stereo not given)
Kd [1]: > 1000 µM
MIC (Staphylococcus aureus [2]): 256 µg/mL (≈ 931 µM)
MIC (Enterococcus faecalis): 256 µg/mL (≈ 931 µM)
MIC (Escherichia coli): 256 µg/mL (≈ 931 µM)
MIC (Enterococcus faecium): 32 µg/mL (≈ 116 µM)
MIC (Staphylococcus aureus [3]): 256 µg/mL (≈ 931 µM)

Oc1ccc(/C=N/Nc2nccnc2Cl)c(O)c1
Kd [1]: 0.0003 µM
IC50 (NIH3T3 [4]): 10.3 µM
MIC (Staphylococcus aureus [2]): 1 µg/mL (≈ 3.78 µM)
MIC (Enterococcus faecalis): > 512 µg/mL
MIC (Escherichia coli): > 512 µg/mL
Activity (NIH3T3 [5]): Non-toxic
MIC (Enterococcus faecium): 32 µg/mL (≈ 121 µM)
MIC (Staphylococcus aureus [3]): 1 µg/mL (≈ 3.78 µM)

Cc1nc2ccccc2c(=O)n1/N=C/c1ccc(O)cc1O
Kd [1]: 0.0009 µM
MIC (Staphylococcus aureus [2]): > 512 µg/mL
MIC (Enterococcus faecalis): > 512 µg/mL
MIC (Escherichia coli): > 512 µg/mL
MIC (Enterococcus faecium): > 512 µg/mL
MIC (Staphylococcus aureus [3]): > 512 µg/mL

Oc1ccc(/C=N/Nc2ccc(C(F)(F)F)cn2)c(O)c1
Kd [1]: 0.0008 µM
MIC (Staphylococcus aureus [2]): 2 µg/mL (≈ 6.73 µM)
MIC (Enterococcus faecalis): 64 µg/mL (≈ 215 µM)
MIC (Escherichia coli): 512 µg/mL (≈ 1720 µM)
MIC (Enterococcus faecium): 32 µg/mL (≈ 108 µM)
viability at 24 h, 0.1 µM [6]: 67%
MIC (Staphylococcus aureus [3]): 4 µg/mL (≈ 13.5 µM)

Cc1nc(CC(=O)c2c(C)cc(O)cc2O)cs1
Kd [1]: > 1000 µM
MIC (Staphylococcus aureus [2]): > 512 µg/mL
MIC (Enterococcus faecalis): > 512 µg/mL
MIC (Escherichia coli): > 512 µg/mL
MIC (Enterococcus faecium): > 512 µg/mL
MIC (Staphylococcus aureus [3]): > 512 µg/mL

COc1ccccc1NC(=O)c1nc[nH]n1
Kd [1]: 34.1 µM
MIC (Staphylococcus aureus [2]): > 512 µg/mL
MIC (Enterococcus faecalis): > 512 µg/mL
MIC (Escherichia coli): > 512 µg/mL
MIC (Enterococcus faecium): > 512 µg/mL
MIC (Staphylococcus aureus [3]): > 512 µg/mL

Cc1cccc(NC(=O)CC2SC(=O)NC2=O)c1 (stereo not given)
Kd [1]: > 1000 µM
MIC (Staphylococcus aureus [2]): > 512 µg/mL
MIC (Enterococcus faecalis): > 512 µg/mL
MIC (Escherichia coli): > 512 µg/mL
MIC (Enterococcus faecium): > 512 µg/mL
MIC (Staphylococcus aureus [3]): > 512 µg/mL

OC[C@@H]1O[C@H](Oc2cccc(Cl)c2)[C@H](O)[C@H](O)[C@H]1O
Kd [1]: 0.36 µM
MIC (Staphylococcus aureus [2]): > 512 µg/mL
MIC (Enterococcus faecalis): > 512 µg/mL
MIC (Escherichia coli): > 512 µg/mL
MIC (Enterococcus faecium): 256 µg/mL (≈ 881 µM)
MIC (Staphylococcus aureus [3]): > 512 µg/mL

CCOC(=O)N/N=C/c1ccc(O)cc1O
Kd [1]: 1.48 µM
MIC (Staphylococcus aureus [2]): 256 µg/mL (≈ 1140 µM)
MIC (Enterococcus faecalis): > 512 µg/mL
MIC (Escherichia coli): > 512 µg/mL
MIC (Enterococcus faecium): 256 µg/mL (≈ 1140 µM)
MIC (Staphylococcus aureus [3]): 512 µg/mL (≈ 2280 µM)

Cc1n[nH]c(C)c1CCC(=O)N/N=C/c1ccc(O)cc1O
Kd [1]: 0.23 µM
MIC (Staphylococcus aureus [2]): 128 µg/mL (≈ 423 µM)
MIC (Enterococcus faecalis): > 512 µg/mL
MIC (Escherichia coli): 256 µg/mL (≈ 847 µM)
MIC (Enterococcus faecium): > 512 µg/mL
MIC (Staphylococcus aureus [3]): 128 µg/mL (≈ 423 µM)

Oc1ccc(/C=N/c2cc(Cl)cc(Cl)c2)c(O)c1
Kd [1]: 0.61 µM
MIC (Staphylococcus aureus [2]): 64 µg/mL (≈ 227 µM)
MIC (Enterococcus faecalis): 512 µg/mL (≈ 1810 µM)
MIC (Escherichia coli): 64 µg/mL (≈ 227 µM)
MIC (Enterococcus faecium): > 512 µg/mL
MIC (Staphylococcus aureus [3]): 128 µg/mL (≈ 454 µM)

C=C/C(C)=C/[C@@]1(C)SC(=O)C(C)=C1O [THIOLACTOMYCIN]
Kd [1]: 55.4 µM
MIC (Enterococcus faecium): 128 µg/mL (≈ 609 µM)
viability at 24 h, 0.1 µM [6]: 85%

O=C(N/N=C/c1ccc(O)c(O)c1O)c1ccc(Cl)cc1Cl
Kd [1]: 0.0072 µM
IC50 (NIH3T3 [4]): 10.9 µM
MIC (Staphylococcus aureus [2]): 4 µg/mL (≈ 11.7 µM)
MIC (Enterococcus faecalis): 32 µg/mL (≈ 93.8 µM)
MIC (Escherichia coli): 64 µg/mL (≈ 188 µM)
Activity (NIH3T3 [5]): Non-toxic
MIC (Enterococcus faecium): 32 µg/mL (≈ 93.8 µM)
MIC (Staphylococcus aureus [3]): 4 µg/mL (≈ 11.7 µM)

CCCCCC12CCC(O)(CC1)CC2O (stereo not given)
Kd [1]: > 1000 µM
MIC (Staphylococcus aureus [2]): > 512 µg/mL
MIC (Enterococcus faecalis): > 512 µg/mL
MIC (Escherichia coli): > 512 µg/mL
MIC (Enterococcus faecium): > 512 µg/mL
MIC (Staphylococcus aureus [3]): > 512 µg/mL

Oc1ccc(/C=N/c2ccc(Cl)cc2Cl)c(O)c1
Kd [1]: 0.72 µM
MIC (Staphylococcus aureus [2]): 128 µg/mL (≈ 454 µM)
MIC (Enterococcus faecalis): > 512 µg/mL
MIC (Escherichia coli): 64 µg/mL (≈ 227 µM)
MIC (Enterococcus faecium): > 512 µg/mL
MIC (Staphylococcus aureus [3]): 128 µg/mL (≈ 454 µM)

CCOC(=O)/C(C#N)=C/c1ccc(O)cc1O
Kd [1]: 44 µM
MIC (Staphylococcus aureus [2]): > 512 µg/mL
MIC (Enterococcus faecalis): 256 µg/mL (≈ 1100 µM)
MIC (Escherichia coli): > 512 µg/mL
MIC (Enterococcus faecium): > 512 µg/mL
MIC (Staphylococcus aureus [3]): 256 µg/mL (≈ 1100 µM)

O=[N+]([O-])c1ccccc1N/N=C/c1ccc(O)c(O)c1
Kd [1]: 3.18 µM
MIC (Staphylococcus aureus [2]): > 512 µg/mL
MIC (Enterococcus faecalis): 256 µg/mL (≈ 937 µM)
MIC (Escherichia coli): > 512 µg/mL
MIC (Enterococcus faecium): 256 µg/mL (≈ 937 µM)
MIC (Staphylococcus aureus [3]): > 512 µg/mL

Nc1ccc(NC(=O)NC2CCCCC2)cc1[N+](=O)[O-]
Kd [1]: 649 µM
MIC (Staphylococcus aureus [2]): > 512 µg/mL
MIC (Enterococcus faecalis): 128 µg/mL (≈ 460 µM)
MIC (Escherichia coli): > 512 µg/mL
MIC (Enterococcus faecium): 256 µg/mL (≈ 920 µM)
MIC (Staphylococcus aureus [3]): > 512 µg/mL
